Among the data in patent US20160159774A1 (Celgene Avilomics Research, Inc., priority 2014, published 2016) are EC50 and IC50 values, retold here.

For experiment [1], the target named is T1, BTK in Ramos human Burkitt lymphoma cells (Homo sapiens, UniProt Q06187).
T1 construct: Compounds of this invention were assayed in Ramos human Burkitt lymphoma cells; endogenous in cells; host or cells: Ramos human Burkitt lymphoma cells
The experiment in a line: BTK Ramos cellular assay (BTK occupancy). The class given is cell-based. To be noted: concentration producing 50% occupancy of BTK, 1 hour incubation with compound. The method, then: BTK activity in Ramos cells, in the presence of a compound of the invention, can be measured by 3 different methods: 1) inhibition of autophosphorylation of BTK; 2) inhibition of phosphorylation of the immediate BTK surrogate PLCγ2; and 3) BTK occupancy. […] In this instance, BTK occupancy was chosen and is described below.
Compounds of this invention were assayed in Ramos human Burkitt lymphoma cells. Ramos cells were grown in suspension in T175 flasks, spun down, resuspended to a concentration of 2×10^6 cells per mL in serum-free media and incubated for 1 hour. Compound was added to Ramos cells to a final concentration of 500, 166.7, 55.6, 18.5, 6.2, 2.1, and 0.7 nM. Ramos cells were incubated with compound for 1 hour, washed with PBS and lysed in 1004 of BioRad lysis Buffer. Cell lysates were incubated with a biotinylated covalent probe (compound 1-215 disclosed in U.S. published application number 2010/0029610, incorporated by reference in its entirety) at a final concentration of 1 μM in a PBS, 0.05% Tween-20, 1% BSA solution for 1 h at room temperature. Standards and samples were transferred to a streptavidin-coated 96-well ELISA plate and mixed while shaking for 1 h at room temperature. The α-Btk antibody (BD 611116, 1:1000 dilution in PBS+0.05% Tween-20+0.5% BSA) was then added and incubated for 1 h at room temperature. After wash, goat α-mouse-HRP (1:5000 dilution in PBS+0.05% Tween-20+0.5% BSA) was added and incubated for 1 h at room temperature. The ELISA was developed with addition of tetramethyl benzidine (TMB) followed by Stop Solution and read at OD 450 nm. The standard curve (11.7-3000 pg/μL) was generated with human full-length recombinant Btk protein and plotted using a 4 parameter curve fit in Gen5 software. Uninhibited Btk detected from samples was normalized to μg total protein as determined by BCA protein analysis (Pierce Cat. 23225).
The results of this assay show the concentration of compound producing 50% occupancy of BTK. This level of occupancy empirically translates to a level of 50% inhibition of BTK activity (both as measured by autophosphorylation and by phosphorylation of PLCγ2). […] The compound numbers correspond to the compound numbers in the examples.

A further experiment addresses T2, activated BTK enzyme (Homo sapiens, UniProt Q06187).
T2 construct: purchased Life Technologies PV3363
The experiment in a line: Omnia assay for potency assessment against BTK. It is filed as biochemical. To be noted: BTK inhibition assay; [BTK]=5 nM, [ATP]=40 μM, [Y5-Sox]=10 μM. From the text:
Omnia Assay Protocol for Potency Assessment Against BTK
The protocol below describes an assay to measure potency of compounds against the activated BTK enzyme. The mechanics of the assay platform are best described by the vendor (Life Technologies, Carlsbad, Calif.) on their website at the following URLs: www.lifetechnologies.com/us/en/home/life-science/drug-discovery/target-and-lead-identification-and-validation/kinasebiology/kinase-activity-assays/omnia-kinase-assays/omnia-kinase-principle.html and tools.lifetechnologies.com/content/sfs/manuals/omnia_kinase_assay_man.pdf
Briefly, 10× stocks of BTK (PV3363) from Life Technologies, 1.13×ATP (AS00lA) and Sox conjugated peptide substrates, Y5-Sox, (KZN305l) were prepared in 1× kinase reaction buffer consisting of 20 mM Tris, pH 7.5, 5 mM MgCl2, 1 mM EGTA, 5 mM (3-glycerophosphate, 5% glycerol (10× stock, KB002A) and 0.2 mM DTT (DS00lA). 5 μL of each enzyme were pre-incubated in a Corning (#3574) 384-well, white, non-binding surface microtiter plate (Corning, N.Y.) for 30 min. at room temperature with a 0.5 μL volume of 50% DMSO or serially diluted compounds prepared in 50% DMSO. Kinase reactions were started with the addition of […] of the ATP/Tyr-Sox peptide substrate Y5 mix and monitored every 71 seconds for 60 minutes at λex360/λem485 in a Synergy4 plate reader from BioTek (Winooski, Vt.). At the conclusion of each assay, progress curves from each well were examined for linear reaction kinetics and fit statistics (R2, 95% confidence interval, absolute sum of squares). Initial velocity (0 minutes to ˜30 minutes) from each reaction was determined from the slope of a plot of relative fluorescence units vs time (minutes) and then plotted against inhibitor concentration to estimate IC50 from log [Inhibitor] vs Response, Variable Slope model in GraphPad Prism from GraphPad Software (San Diego, Calif.).
Reagent conditions for the assay are:
[BTK]=5 nM, [ATP]=40 μM, [Y5-Sox]=10 μM (ATP KMapp˜36 μM).
The compound numbers correspond to the compound numbers in the examples.

pEC50, pIC50: −log10 of the molar value. A value given as a limit tells only on which side of the number the result lay.

T2 sequence (Q06187 whole entry): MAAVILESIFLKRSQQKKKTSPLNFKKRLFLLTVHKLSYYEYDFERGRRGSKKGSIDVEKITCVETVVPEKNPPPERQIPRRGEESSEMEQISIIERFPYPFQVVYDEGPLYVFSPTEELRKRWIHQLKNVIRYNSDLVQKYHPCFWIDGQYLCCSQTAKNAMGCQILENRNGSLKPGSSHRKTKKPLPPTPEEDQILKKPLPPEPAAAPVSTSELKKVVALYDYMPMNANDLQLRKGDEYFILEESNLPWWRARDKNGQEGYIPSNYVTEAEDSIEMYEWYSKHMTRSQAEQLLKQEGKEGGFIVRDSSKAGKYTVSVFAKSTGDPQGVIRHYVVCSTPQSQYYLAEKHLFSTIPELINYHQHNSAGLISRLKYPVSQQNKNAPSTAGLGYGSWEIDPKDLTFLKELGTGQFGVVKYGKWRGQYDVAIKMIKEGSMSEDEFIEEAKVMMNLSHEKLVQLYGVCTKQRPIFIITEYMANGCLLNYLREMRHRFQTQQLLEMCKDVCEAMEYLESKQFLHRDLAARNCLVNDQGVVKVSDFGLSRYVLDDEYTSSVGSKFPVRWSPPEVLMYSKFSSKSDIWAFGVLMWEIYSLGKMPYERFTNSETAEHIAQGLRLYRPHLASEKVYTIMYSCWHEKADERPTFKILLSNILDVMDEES
T1 sequence (Q06187 whole entry): as above

Take `C=CC(=O)N1CCC[C@@H](Nc2nc(Nc3ccc4c(c3)CN(C)C4)ncc2F)C1` [Compound I-2, (R)-1-(3-((5-Fluoro-2-((2-methylisoindolin-5-yl)amino)pyrimidin-4-yl)amino)piperidin-1-yl)prop-2-en-1-one]: in experiment [1], the pEC50 was > 8.00. In addition, at activated BTK enzyme, the negative logarithm of the IC50 (pIC50) was > 8.00.
As to `C=CC(=O)N1CCC[C@@H](Nc2nc(Nc3ccc4c(c3)CCCN(C)C4=O)ncc2F)C1` [Compound I-52, (R)-7-((4-((1-Acryloylpiperidin-3-yl)amino)-5-fluoropyrimidin-2-yl)amino)-2-methyl-2,3,4,5-tetrahydro-1H-benzo[c]azepin-1-one], the pEC50 in experiment [1] was 7.00 to 8.00. The pIC50 at activated BTK enzyme is > 8.00.
For `C=CC(=O)N1CCC[C@@H](Nc2nc(Nc3ccc4c(c3)CN(C)CC4)ncc2F)C1` [Compound I-34, (R)-1-(3-((5-Fluoro-2-((2-methyl-1,2,3,4-tetrahydroisoquinolin-7-yl)amino)-pyrimidin-4-yl)amino)piperidin-1-yl)prop-2-en-1-one] the same measures were > 8.00 and > 8.00.
The matching figures for `C=CC(=O)N1CCC[C@@H](Nc2nc(Nc3ccc4c(c3)C(=O)N(C)C4=O)ncc2F)C1` [Compound I-63, (R)-5-((4-((1-Acryloylpiperidin-3-yl)amino)-5-fluoropyrimidin-2-yl)amino)-2-methylisoindoline-1,3-dione]: 7.00 to 8.00 and > 8.00.
The matching figures for `C=CC(=O)N1CCC[C@@H](Nc2nc(Nc3ccc4c(c3)CN(C)C4)ncc2C(F)(F)F)C1` [Compound I-64, (R)-1-(3-((2-((2-Methylisoindolin-5-yl)amino)-5-(trifluoromethyl)pyrimidin-4-yl)amino)piperidin-1-yl)prop-2-en-1-one]: > 8.00 and > 8.00.
As to `C=CC(=O)N1CCC[C@@H](Nc2nc(Nc3ccc4c(c3)CN(C3CC3)C4)ncc2F)C1` [Compound I-21, (R)-1-(3-((2-((2-cyclopropylisoindolin-5-yl)amino)-5-fluoropyrimidin-4-yl)amino)piperidin-1-yl)prop-2-en-1-one], the pEC50 in experiment [1] was 7.00 to 8.00. Besides, the pIC50 at activated BTK enzyme was > 8.00.
For `C=CC(=O)N1CCC[C@@H](Nc2nc(Nc3ccc4c(c3)CN(CC3CC3)C4)ncc2F)C1` [Compound I-19, (R)-1-(3-((2-((2-(cyclopropylmethyl)isoindolin-5-yl)amino)-5-fluoropyrimidin-4-yl)amino)piperidin-1-yl)prop-2-en-1-one] the same measures were > 8.00 and > 8.00.
The matching figures for `C=CC(=O)N1CCC[C@@H](Nc2nc(Nc3ccc4c(c3)CCN(C)C4)ncc2F)C1` [Compound I-28, (R)-1-(3-((5-Fluoro-2-((2-methyl-1,2,3,4-tetrahydroisoquinolin-6-yl)amino)-pyrimidin-4-yl)amino)piperidin-1-yl)prop-2-en-1-one]: 7.00 to 8.00 and > 8.00.
For `C=CC(=O)N1CCC[C@@H](Nc2nc(Nc3ccc4c(c3)CN(CC(N)=O)C4)ncc2F)C1` [Compound I-16] the same measures were > 8.00 and > 8.00.
With `C=CC(=O)N1CCC[C@@H](Nc2nc(Nc3ccc4c(c3)CN(CC3CCN(C(C)=O)CC3)C4)ncc2F)C1` [Compound I-10], in experiment [1], the pEC50 was 7.00 to 8.00. At activated BTK enzyme, the pIC50 is > 8.00.
Take `C=CC(=O)N1CCC[C@@H](Nc2nc(Nc3ccc4c(c3)CCN(C3CC3)C4)ncc2F)C1` [Compound I-44, (R)-1-(3-((2-((2-Cyclopropyl-1,2,3,4-tetrahydroisoquinolin-6-yl)amino)-5-fluoropyrimidin-4-yl)amino)piperidin-1-yl)prop-2-en-1-one]: the pEC50 in experiment [1] is 7.00 to 8.00. The pIC50 on activated BTK enzyme was > 8.00.
The matching figures for `C=CC(=O)N1CCC[C@@H](Nc2nc(Nc3ccc4c(c3)CNC4)ncc2F)C1` [Compound I-1, (R)-1-(3-((5-fluoro-2-(isoindolin-5-ylamino)pyrimidin-4-yl)amino)piperidin-1-yl)prop-2-en-1-one]: 7.00 to 8.00 and > 8.00.
For `[2H]C([2H])([2H])N1Cc2ccc(Nc3ncc(F)c(N[C@@H]4CCCN(C(=O)C=C)C4)n3)cc2C1` [Compound I-20, (R)-1-(3-((5-Fluoro-2-((2-deuteromethylisoindolin-5-yl)amino)pyrimidin-4-yl)amino)piperidin-1-yl)prop-2-en-1-one], the pEC50 in experiment [1] is > 8.00. The negative logarithm of the IC50 (pIC50) on activated BTK enzyme is > 8.00.
Turning to `C=CC(=O)N1CCC[C@@H](Nc2nc(Nc3ccc4c(c3)CN(C3COC3)CC4)ncc2F)C1` [Compound I-35, (R)-1-(3-(5-Fluoro-2-(2-(oxetan-3-yl)-1,2,3,4-tetrahydroisoquinolin-7-ylamino)-pyrimidin-4-ylamino)piperidin-1-yl)prop-2-en-1-one], the pEC50 in experiment [1] was > 8.00. On activated BTK enzyme, the pIC50 was > 8.00.
`C=CC(=O)N1CCC[C@@H](Nc2nc(Nc3ccc4c(c3)CCCN(CC3COC3)C4)ncc2F)C1` [Compound I-50, (R)-1-(3-((5-Fluoro-2-((2-(oxetan-3-ylmethyl)-2,3,4,5-tetrahydro-1H-benzo[c]azepin-7-yl)amino)pyrimidin-4-yl)amino)piperidin-1-yl)prop-2-en-1-one]: the pEC50 in experiment [1] was 7.00 to 8.00. Also, the pIC50 on activated BTK enzyme was > 8.00.
As for `C=CC(=O)N1CCC[C@@H](Nc2nc(Nc3ccc4c(c3)CNC4)ncc2C(F)(F)F)C1` [Compound I-65, (R)-1-(3-((2-(Isoindolin-5-ylamino)-5-(trifluoromethyl)pyrimidin-4-yl)amino)piperidin-1-yl)prop-2-en-1-one], the pEC50 in experiment [1] is > 8.00. The pIC50 on activated BTK enzyme was > 8.00.
Turning to `C=CC(=O)N1CCC[C@@H](Nc2nc(Nc3ccc4c(c3)CN(c3ccc(F)cc3)C4)ncc2F)C1` [Compound I-24, (R)-1-(3-((5-fluoro-2-((2-(4-fluorophenyl)isoindolin-5-yl)amino)pyrimidin-4-yl)amino)piperidin-1-yl)prop-2-en-1-one], the pEC50 in experiment [1] is 6.00 to 7.00. Also, the pIC50 on activated BTK enzyme is > 8.00.
On to `C=CC(=O)N1CCC[C@@H](Nc2nc(Nc3ccc4c(c3)CN(CCO)C4)ncc2F)C1` [Compound I-23, (R)-1-(3-((5-fluoro-2-((2-(2-hydroxyethyl)isoindolin-5-yl)amino)pyrimidin-4-yl)amino)piperidin-1-yl)prop-2-en-1-one], for which the pEC50 in experiment [1] is > 8.00. At activated BTK enzyme, the pIC50 was > 8.00.
In the case of `C=CC(=O)N1CCC[C@@H](Nc2nc(Nc3ccc4c(c3)CN(C(C)(C)C)C4)ncc2F)C1` [Compound I-25, (R)-1-(3-((2-((2-(tert-butyl)isoindolin-5-yl)amino)-5-fluoropyrimidin-4-yl)amino)piperidin-1-yl)prop-2-en-1-one], in experiment [1], the pEC50 was > 8.00. Besides, on activated BTK enzyme, the pIC50 is > 8.00.

In general, pEC50 refers to the EC50 on a negative log10 scale, so that one unit is a factor of ten. As a reminder, the pIC50 is the negative decadic logarithm of the IC50, by convention in mol/L.
